Results from patent US20130344140A1, “NOVEL PHARMACEUTICAL COMBINATIONS AND METHODS FOR TREATING CANCER” (Agency for Science, Technology and Research, priority 2011, published 2013).

Columns and labels:
Type in all cases: cell-based
[1] = tested on: cyclins A2 and B1 mRNAs in wild-type HCT116 cells; experiment: qRT-PCR of transcript levels in HCT116 cells treated with VX-680; conditions: VX-680-treated wild-type HCT116 (not in p53−/− or p21−/− cells)
Protocol: It is noteworthy that cyclins A2 and B1 levels remained high in p53−/− and p21−/− cells even after cells were incubated with VX-680 for 48 h, in contrast to that observed in the wild-type cells.
(§1) Total RNA was isolated using the RNeasy kit (Qiagen, Valencia, Calif., USA). The RNA was quantified using spectrophotometric analysis and used for quantitative real-time PCR. The primers used for each target analyzed are available on request. The RNA Master Power SYBR Green Mix (Roche) was used for quantification of mRNA levels.

p53, p21, MDM2 and PUMA = experiment: Accumulation of p53 and p53-dependent gene products in response to VX-680 (western blot, transcript levels); conditions: cells treated with VX-680 (FIG. 8A)
Protocol: (A) Western blots show the accumulation of p53, p21, MDM2 and PUMA proteins. Graphs below represent the quantification of the corresponding transcript levels of the proteins.
For western blotting, cell extracts were prepared using NP-40 lysis buffer (50 mM Tris-HCl (pH 8.0), 150 mM NaCl, 1% NP-40, 5 mM EDTA supplemented with protease and phosphatase inhibitor cocktails (Sigma).
as §1

[2] = tested on: A375, U2OS, A549, HCT116 p53+/+, HCT116 p53−/−, MDA-MB-486 and H1299 cells; experiment: Cell cycle distribution (propidium iodide flow cytometry) in a panel of tumor-derived cell lines after VX-680; conditions: 200 nM VX-680; harvested at 24, 48 and 72 h; p53 wild-type, mutant and deleted lines
Protocol: (a) p53-positive cells (A375, U2OS, A549 and HCT116 p53+/+) and (b) p53-compromised cells (HCT116 p53−/−, […] and H1299) were treated with 200 nM VX-680 and harvested at the indicated time points. Analysis of cell cycle distribution using propidium iodide staining was performed using flow cytometry. Representative DNA profiles are shown. DNA content is indicated. No DNA profile was shown for cells that are 100% apoptotic.
p53 has been implicated in a postmitotic G1 checkpoint in response to various mitotic inhibitors. We examined whether this checkpoint is induced after aurora kinase inhibition by VX-680 and whether tetraploidy is suppressed by wild-type p53 functions. Using a panel of commonly used tumor-derived cell lines expressing either wild-type p53, mutant p53 or a deletion at the p53 gene locus (Table 1), we tested the correlation of p53 gene status to VX-680-induced endoreduplication. These cell lines were treated with VX-680, and harvested for cell cycle analysis at 24, 48 and 72 h.

A375 and HCT116 p53+/+ = experiment: Annexin V apoptosis assay, p53-positive cell lines; conditions: various concentrations of VX-680
Protocol: Cells were then harvested and stained for annexin V to detect apoptotic cells.
For analysis of apoptosis, cells were harvested without fixation. Apoptosis was evaluated using the annexin V (fluorescein isothiocyanate (FITC))-propidium iodide binding assay (Roche, Indianapolis, Ind., USA). The extent of apoptosis was quantified as a percentage of annexin V-positive cells over the total cell population. Flow cytometric analysis was performed on a BD LSR II System (BD Biosciences, Stockholm, Sweden). Data were analyzed using FlowJo software and ModFit LT (Verity Software House, Topsham, Me., USA).

HCT116 p53−/− cells = experiment: Cell cycle analysis of HCT116 p53−/− cells (nutlin-3, VX-680); conditions: 200 nM VX-680, later time points (40 and 48 h), compared with p53+/+
Protocol: (a) is a comparison of the DNA profiles of P53+/+ and p53−/− cells after treatment with VX-680. HCT116 p53+/+ and p53−/− cells were incubated with 200 nM VX-680 and cells were harvested at the indicated time points for analysis of cell cycle distribution.
(b) is a comparison of the DNA profiles of p53+/+ and p53−/− cells with pre-treatment of Nutlin before incubation with VX-680.

A549 cells = experiment: Micronuclei formation and γH2AX staining (immunofluorescence microscopy) in A549 cells
Protocol: Cells were fixed and stained for γH2AX (green) as described in Materials and Methods in the Examples. Nuclei were counterstained with DAPI blue. Visualization of nuclei and γH2AX positive foci was done by fluorescence microscopy.
Indirect immunofluorescence was carried out as described previously.^14 g-H2AX (Novus Biologicals, Littleton, Colo., USA, NB 100-383) and anti-rabbit Alexa 488-coupled secondary antibody (Molecular Probes, Carlsbad, Calif., USA) were used. Nuclei were counterstained with Hoechst 33342 (Molecular Probes). Immunofluorescence was visualized using Axiolmager Z1 (Zeiss, Gottingen, Germany).

`Cc1cc(Nc2cc(N3CCN(C)CC3)nc(Sc3ccc(NC(=O)C4CC4)cc3)n2)[nH]n1` [VX-680, cyclopropane carboxylic acid of {4-[4-(4-methyl-piperazin-1-yl)-6-(5-methyl-2H-pyrazol-3-ylamino)-pyrimidin-2-ylsulphanyl]-phenyl}-amide] was tested, and the “cyclins A2 and B1 mRNAs” value [1] was “greatly reduced”, the p53 activation (p53, p21, MDM2 and PUMA) was “p53 was activated” and the “p53 target genes p21, PUMA and MDM2” value (p53, p21, MDM2 and PUMA) was “all upregulated”. The endoreduplication [2] was “all tumor cell lines undergo endoreduplication”, the “apoptosis (annexin V)” value (A375 and HCT116 p53+/+) was “underwent apoptosis” and the endoreduplication (HCT116 p53−/− cells) was “Increased endoreduplication”. For the same compound, the “cells containing at least 1 micronucleus per nucleus” value (A549 cells; A549, VX-680 48 h) was “More than 70%” and the “γH2AX staining in the micronuclei” value (A549 cells; A549, VX-680-treated) was “increased”.
